Measured values: ChEMBL document CHEMBL3421592, “Synthesis and QSAR study of novel anti-inflammatory active mesalazine-metronidazole conjugates” (Bioorg Med Chem Lett, 2015)

Columns and labels:
Rattus norvegicus [1] = assay: Antiinflammatory activity in Wistar rat assessed as inhibition of carrageenan-induced paw edema at 10 mg/kg indomethacin mol equivalent, ip administered 1 hr prior to carrageenan challenge measured at 24 hrs relative to control; assay type: functional; settings: route intraperitoneal
Rattus norvegicus [2] = assay: Antiinflammatory activity in Wistar rat assessed as inhibition of carrageenan-induced paw edema at 10 mg/kg indomethacin mol equivalent, ip administered 1 hr prior to carrageenan challenge measured at 3 hrs relative to control; assay type: functional; settings: route intraperitoneal
Rattus norvegicus [3] = assay: Antiinflammatory activity in Wistar rat assessed as inhibition of carrageenan-induced paw edema at 10 mg/kg indomethacin mol equivalent, ip administered 1 hr prior to carrageenan challenge measured at 1 hr relative to control; assay type: functional; settings: route intraperitoneal
Rattus norvegicus [4] = assay: Antiinflammatory activity in Wistar rat assessed as inhibition of carrageenan-induced paw edema at 10 mg/kg indomethacin mol equivalent, ip administered 1 hr prior to carrageenan challenge measured at 4 hrs relative to control; assay type: functional; settings: route intraperitoneal
Rattus norvegicus [5] = assay: Antiinflammatory activity in Wistar rat assessed as inhibition of carrageenan-induced paw edema at 10 mg/kg indomethacin mol equivalent, ip administered 1 hr prior to carrageenan challenge measured at 2 hrs relative to control; assay type: functional; settings: route intraperitoneal
Rattus norvegicus [6] = assay: Antiinflammatory activity in Wistar rat assessed as inhibition of carrageenan-induced paw edema at 10 mg/kg, ip administered 1 hr prior to carrageenan challenge measured at 2 hrs relative to control; assay type: functional; settings: route intraperitoneal
Rattus norvegicus [7] = assay: Antiinflammatory activity in Wistar rat assessed as inhibition of carrageenan-induced paw edema at 10 mg/kg, ip administered 1 hr prior to carrageenan challenge measured at 3 hrs relative to control; assay type: functional; settings: route intraperitoneal
Rattus norvegicus [8] = assay: Ulcerogenic activity in Wistar rat assessed as ulcer index at 10 mg/kg, po administered 3 days relative to control; assay type: toxicity, organism-based; design: dose 10 mg/kg, route oral; settings: in vivo, 72 h
Rattus norvegicus [9] = assay: Antiinflammatory activity in Wistar rat assessed as inhibition of carrageenan-induced paw edema at 10 mg/kg, ip administered 1 hr prior to carrageenan challenge measured at 1 hr relative to control; assay type: functional; settings: route intraperitoneal
Rattus norvegicus [10] = assay: Ulcerogenic activity in Wistar rat assessed as ulcer index at 10 mg/kg indomethacin mol equivalent, po administered 3 days relative to control; assay type: toxicity, organism-based; design: dose 10 mg/kg, route oral; settings: in vivo, 72 h
Mus musculus [11] = assay: Toxicity in albino mouse assessed as appearance of toxic symptoms at 50 to 100 mg/kg indomethacin mol equivalent, ip measured after 24 hrs; assay type: organism-based; design: dose 50-100 mg/kg, route intraperitoneal; settings: in vivo
Mus musculus [12] = assay: Toxicity in albino mouse assessed as mortality at 50 to 100 mg/kg indomethacin mol equivalent, ip measured after 24 hrs; assay type: organism-based; design: dose 50-100 mg/kg, route intraperitoneal; settings: in vivo

Cc1ncc([N+](=O)[O-])n1CCOC(=O)c1cc(NC(=O)[C@H](Cc2ccccc2)NC(=O)OCc2ccccc2)ccc1O
inhibition in vivo (Rattus norvegicus [1]): 33.2%
inhibition in vivo (Rattus norvegicus [2]): 29%
inhibition in vivo (Rattus norvegicus [3]): 54.8%
inhibition in vivo (Rattus norvegicus [4]): 27.5%
inhibition in vivo (Rattus norvegicus [5]): 30.1%

Cc1ncc([N+](=O)[O-])n1CCOC(=O)c1cc(NC(=O)CNC(=O)OCc2ccccc2)ccc1O
inhibition in vivo (Rattus norvegicus [1]): 17.1%
inhibition in vivo (Rattus norvegicus [2]): 57%
inhibition in vivo (Rattus norvegicus [3]): 56.1%
inhibition in vivo (Rattus norvegicus [4]): 52.8%
inhibition in vivo (Rattus norvegicus [5]): 56.5%

COc1ccc2c(c1)c(CC(=O)O)c(C)n2C(=O)c1ccc(Cl)cc1 [INDOMETHACIN]
inhibition in vivo at 10 mg/kg (Rattus norvegicus [6]): 55.3%
inhibition in vivo at 10 mg/kg (Rattus norvegicus [7]): 61.3%
UI (Rattus norvegicus [8]): 6
inhibition in vivo at 10 mg/kg (Rattus norvegicus [9]): 48.3%

Cc1ncc([N+](=O)[O-])n1CCOC(=O)c1cc(NC(=O)[C@@H](NC(=O)OCc2ccccc2)C(C)C)ccc1O
inhibition in vivo (Rattus norvegicus [1]): 51.7%
UI (Rattus norvegicus [10]): 0
Activity (Mus musculus [11]): Non-toxic
inhibition in vivo (Rattus norvegicus [2]): 61.5%
Activity (Mus musculus [12]): Non-toxic
inhibition in vivo (Rattus norvegicus [3]): 74.4%
inhibition in vivo (Rattus norvegicus [4]): 58.2%
inhibition in vivo (Rattus norvegicus [5]): 64.5%

CC(=O)Nc1ccc(O)c(C(=O)O)c1
inhibition in vivo (Rattus norvegicus [1]): 0%
inhibition in vivo (Rattus norvegicus [2]): 1.3%
inhibition in vivo (Rattus norvegicus [3]): 43.3%
inhibition in vivo (Rattus norvegicus [4]): 0%
inhibition in vivo (Rattus norvegicus [5]): 7.9%

CC(=O)Nc1ccc(O)c(C(=O)OCCn2c([N+](=O)[O-])cnc2C)c1
inhibition in vivo (Rattus norvegicus [1]): 0%
inhibition in vivo (Rattus norvegicus [2]): 16.6%
inhibition in vivo (Rattus norvegicus [3]): 63.4%
inhibition in vivo (Rattus norvegicus [4]): 15.5%
inhibition in vivo (Rattus norvegicus [5]): 24.5%

Cc1ncc([N+](=O)[O-])n1CCOC(=O)c1cc(NC(=O)[C@H](C)NC(=O)OCc2ccccc2)ccc1O
inhibition in vivo (Rattus norvegicus [1]): 11.6%
inhibition in vivo (Rattus norvegicus [2]): 37.1%
inhibition in vivo (Rattus norvegicus [3]): 58.5%
inhibition in vivo (Rattus norvegicus [4]): 36.1%
inhibition in vivo (Rattus norvegicus [5]): 37.5%

Nc1ccc(O)c(C(=O)O)c1 [MESALAMINE]
inhibition in vivo (Rattus norvegicus [1]): 38.6%
inhibition in vivo (Rattus norvegicus [2]): 57.5%
inhibition in vivo (Rattus norvegicus [3]): 63.8%
inhibition in vivo (Rattus norvegicus [4]): 52.3%
inhibition in vivo (Rattus norvegicus [5]): 53.2%

Cc1ncc([N+](=O)[O-])n1CCOC(=O)c1cc(NC(=O)[C@H](CCCCN)NC(=O)OCc2ccccc2)ccc1O
inhibition in vivo (Rattus norvegicus [1]): 23.4%
inhibition in vivo (Rattus norvegicus [2]): 36.9%
inhibition in vivo (Rattus norvegicus [3]): 44.3%
inhibition in vivo (Rattus norvegicus [4]): 33.5%
inhibition in vivo (Rattus norvegicus [5]): 37.8%

Cc1ncc([N+](=O)[O-])n1CCOC(=O)c1cc(NC(=O)C(C)NC(=O)OCc2ccccc2)ccc1O (racemic)
inhibition in vivo (Rattus norvegicus [1]): 0%
inhibition in vivo (Rattus norvegicus [2]): 44.8%
inhibition in vivo (Rattus norvegicus [3]): 57.9%
inhibition in vivo (Rattus norvegicus [4]): 41.1%
inhibition in vivo (Rattus norvegicus [5]): 47%

Cc1ncc([N+](=O)[O-])n1CCO [METRONIDAZOLE]
inhibition in vivo (Rattus norvegicus [1]): 0%
UI (Rattus norvegicus [10]): 0
Activity (Mus musculus [11]): Non-toxic
inhibition in vivo (Rattus norvegicus [2]): 60.8%
Activity (Mus musculus [12]): Non-toxic
inhibition in vivo (Rattus norvegicus [3]): 66.3%
inhibition in vivo (Rattus norvegicus [4]): 58.9%
inhibition in vivo (Rattus norvegicus [5]): 66.3%
